The values below come from ChEMBL document CHEMBL3507680, “University of Dundee, Gates Library screen for HepG2 cell viability”.

This data set can be described thus: Human HepG2 cell viability assay in 384 well format. The conditions noted are these: HepG2 cells, read-out: Inhibition. Set-up: dose 125 nL, time 70.5 hour; concentration not given beside the values. The class given is toxicity, cell-based.
On to `O=C(c1n[nH]c2c1CN(C1CCOC1)CC2)N1CCCC1` (stereo not given), for which the cytotoxicity at 70.5 h was -1.72%. As for `Cc1nc(C)n(C2CCCN(C(=O)c3sccc3C)C2)n1` (stereo not given), the figure is -5.74%. The result for `Fc1cccc(C2CCCN2Cc2nnnn2C2CC2)c1` (stereo not given) reads -8.46%. The result for `CC(C)=CCN1C[C@H]2CC[C@@H]1CN(C(=O)c1c[nH]c(=O)c(Cl)c1)C2` reads -1.3%; that for `CCc1cnc(CN(C(C)=O)C2CCN(CC(=O)N3CCCC3)C2)o1` (stereo not given), -4.28%. As for `CN(Cc1ccsc1)C(=O)CN1CCCC(Cn2cncn2)C1` (stereo not given), the cytotoxicity at 70.5 h is -5.89%.

Take `COc1ccc(C(NCc2cccc(C#N)c2)C2CC2)cc1` (stereo not given): the cytotoxicity at 70.5 h was -2.12%. The result for `CC(C)(C)c1n[nH]c(C2CN(C(=O)CCc3cscn3)CCO2)n1` (stereo not given) reads -21.1%; that for `CC(C)n1cnnc1C1CCCN(C(=O)COCc2ccccc2)C1` (stereo not given), -5.17%; that for `CC1CCN(CC(O)CN2CCn3c(nnc3C3CC3)C2)CC1` (stereo not given), 35.7%. The result for `CNC(=O)[C@H]1C[C@@H]2CN(Cc3ccc(C)cc3)C[C@H]1O2` reads -6.44%. `Cc1cc(NC(=O)C(C)N2CCN(c3nc(C)cs3)CC2)on1` (stereo not given): the cytotoxicity at 70.5 h was -5.64%. For `Cc1cc2c(=O)n(CCSc3ncn[nH]3)cnc2s1`, the cytotoxicity at 70.5 h was -7.44%. On to `O=C(NCCCO)c1cnc(-c2ccccc2)nc1O`, for which the cytotoxicity at 70.5 h was -2.27%. Take `CN(Cc1ccco1)C(=O)C1CSCN1C(=O)C1CCC1` (stereo not given): the cytotoxicity at 70.5 h was -8.79%. With `O=C(NCCc1ccccc1)C1CCN(C(=O)Cn2cncn2)C1` (stereo not given), the cytotoxicity at 70.5 h is -10.2%.

As for `N#Cc1ccc(NCc2cccc(COC3CCOCC3)c2)nc1`, the cytotoxicity at 70.5 h was -2.1%. On to `Cn1cnc2c1C(COCc1ccccc1)N(Cc1ccncc1)CC2` (stereo not given), for which the cytotoxicity at 70.5 h is -3.01%. As to `CC(C)COCCCNC(=O)NC(C)c1ccc(-n2cncn2)cc1` (stereo not given), the cytotoxicity at 70.5 h was -3.59%.

For the molecule `CCOc1nnc(CN2CCN(CCOC)C(C)C2)s1` (stereo not given), the cytotoxicity at 70.5 h was -7.83%. As for `COc1cccc(O[C@H]2CCN(c3nc(C)cc(C)n3)CC[C@@H]2O)c1`, the figure is 20.4%; as for `Cc1noc(C)c1CN1CC[C@H]2OCC[C@@]2(C(=O)NC2CCCC2)C1`, -9.16%. In the case of `CN(C)C(=O)CNC(CC(F)(F)F)c1ccc(Cl)cc1` (stereo not given), the cytotoxicity at 70.5 h worked out at 0.0833%.

Turning to `Cc1cccc(C(=O)NCc2ccccc2)n1`, the cytotoxicity at 70.5 h is -15.5%. The result for `COc1cccc(C(C)Nc2ncnc3c2NC(=O)CN3)c1` (stereo not given) reads 11%; that for `COc1ccc(C(=O)NS(=O)(=O)c2cncc(Br)c2)cc1OC`, -3.31%. On to `Cc1nc(NC(=O)OC(C)(C)C)sc1C(=O)O`, for which the cytotoxicity at 70.5 h is 21.2%. The result for `O=C(Cc1cccs1)N1C[C@@H]2COC[C@]2(COc2cccnc2)C1` reads -1.72%; that for `Cc1ccsc1C(O)CNC(=O)Cc1ccc(S(=O)(=O)C(C)C)cc1` (stereo not given), -13.3%; that for `CCOC(=O)CCC(=O)NC(C)c1ccc(NC(=O)CC)cc1` (stereo not given), -3.08%. In the case of `Cc1ccc(C(=O)N2CCn3cc(CN(C)Cc4ccco4)nc3C2)o1`, the cytotoxicity at 70.5 h came to 8.16%. The result for `CCCc1nnc(N2CCN(c3cccc(C)c3C)CC2)o1` reads -14.8%. Take `Cc1nnc([C@H]2C[C@@H]3CCN(Cc4ccc(C)o4)C[C@H]3O2)[nH]1`: the cytotoxicity at 70.5 h is -7.28%.

For the molecule `CC(C)(C)C(C#N)NC(=O)c1ccc(Oc2cccnc2)cc1` (stereo not given), the cytotoxicity at 70.5 h is -8.31%. Regarding `Cc1cc2c(=O)n3c(nc2s1)CCN(Cc1ccncc1)CC3`, the cytotoxicity at 70.5 h is -13.5%. The result for `Cc1ccc(CCNc2ncc(C)c(-c3ccnn3C)n2)s1` reads -8.02%; that for `CCOc1ccnc(N2CCN(C(=O)c3cnc[nH]3)CC2)n1`, -0.507%; that for `Cc1n[nH]c(SCC(=O)NC(c2ccncc2)C(C)C)n1` (stereo not given), 21%. As for `CCc1n[nH]c(C2CN(C(=O)c3ccnc(C4CC4)n3)CCO2)n1` (stereo not given), the figure is -5.63%; as for `O=C(c1ccc2cc[nH]c2c1)N1CCCN(Cc2cscn2)CC1`, -2.03%; as for `Cc1nc(CNC(=O)NCC(O)c2ccc(F)c(F)c2)cs1` (stereo not given), 1.43%. As for `O=C(NC1CCc2ccccc2C1)N1CCN(C(=O)C2CCC2)CC1` (stereo not given), the figure is -5.12%. For the molecule `O=C(c1cc[nH]n1)N1CC[C@@H]2CN(Cc3cccnc3)S(=O)(=O)[C@@H]2CC1`, the cytotoxicity at 70.5 h was -1.58%. The result for `Cc1ccnc(CC(C)N(C)c2cc(CCN)nc(C)n2)c1` (stereo not given) reads -6.01%; that for `c1csc(CN2CCCn3cnc(CN4CCCC4)c3C2)c1`, -2.7%.

Consider `Cc1nc[nH]c1CN(C)CC1CCCN(CCc2ccc(Cl)cc2)C1` (stereo not given), for which the cytotoxicity at 70.5 h worked out at 20.5%.

`CC(C)(C)c1n[nH]c(C2CN(C(=O)c3ccsc3)CCO2)n1` (stereo not given): the cytotoxicity at 70.5 h is -16.5%.

As to `COc1cccc2c1ccn2CC(=O)N1CCCC(C(=O)O)C1` (stereo not given), the cytotoxicity at 70.5 h worked out at 21.4%. The result for `CCc1nc2c(NCC3COc4cc(OC)ccc4C3)ncnc2o1` (stereo not given) reads -5.75%; that for `CN1CCC(c2cc(C(F)(F)F)n3ccnc3n2)CC1`, 24.8%. Take `N#Cc1cccc(OCc2ccoc2C(=O)N2CCCCC2)c1`: the cytotoxicity at 70.5 h amounted to 3.19%. In the case of `COc1ccc(Cn2cc(C(C)O)nn2)cc1` (stereo not given), the cytotoxicity at 70.5 h is 20.2%. As for `O=C(O)COc1ccc(CN2CCCC(Cc3cccnc3)C2)cc1` (stereo not given), the figure is -9.55%. As to `Cc1ncncc1C(=O)N1CCCN(Cc2ncc(Cl)n2C)CC1`, the cytotoxicity at 70.5 h was -1.21%. As to `Cc1cncc(C(=O)N2CCCC(O)(CN3CCCC3)C2)c1` (stereo not given), the cytotoxicity at 70.5 h is -19.8%.

Take `O=C(c1ccccc1)N1CCCC2(CCN2Cc2cccc(F)c2)C1` (stereo not given): the cytotoxicity at 70.5 h is -9.02%. As to `CC(CNC(=O)c1cccnc1)Oc1ccc(F)cc1` (stereo not given), the cytotoxicity at 70.5 h was found to be 8.38%. Regarding `Cc1ccc(NC(=O)N2CCN(C(=O)CC3CCCC3)CC2)s1`, the cytotoxicity at 70.5 h was -10.2%. The result for `CCN(CCNC(=O)Nc1nnc(C)s1)C(=O)OC(C)(C)C` reads -5.88%; that for `Cc1cc(N2CCC(NC(=O)CCc3cnn(C)c3)CC2)nc(C)n1`, -4.77%; that for `Nc1cnc(-c2ccc(F)cc2Cl)cn1`, 10.8%.

`Cc1nc(-n2cnnc2)ccc1-c1cccc2c1CCNC2`: the cytotoxicity at 70.5 h came to 6.99%. `O=C(CCc1ccccc1)N1CCn2cc(Cn3cncn3)nc2C1`: the cytotoxicity at 70.5 h was -11.8%. On to `CN(Cc1cscn1)Cc1cc2c(cc1Br)OCO2`, for which the cytotoxicity at 70.5 h is -4.04%.

In the case of `Cc1ccc(CNC2CCCc3c2cnn3Cc2ccccc2)s1` (stereo not given), the cytotoxicity at 70.5 h was -8.41%.

`CCC(C)N(C)C(=O)Nc1ccc(N2CCSCC2)cc1C` (stereo not given): the cytotoxicity at 70.5 h was -5.01%. The result for `Cc1csc(CN(C)C(=O)c2cccc(CCC(C)(C)O)c2)n1` reads -6.05%; that for `Cc1ccc(C(=O)O)cc1CNC(=O)CN1CC(C)(C)[C@@](C)(O)C1`, -6.75%; that for `Cc1ccc(CNC(=O)c2cc(NC(=O)C3CC3)n(C)n2)o1`, -7.15%. For the molecule `CNC(=O)CN1CCOCC2(CCCN(Cc3ccoc3)C2)C1` (stereo not given), the cytotoxicity at 70.5 h is -8.87%. As for `CCS(=O)(=O)NCc1nc(C)cc(N2CCCCC2)n1`, the cytotoxicity at 70.5 h is -7.45%. The result for `c1cncc(CNc2cncc(C3CCCN3)n2)c1` (stereo not given) reads -8.46%. The result for `c1cncc(N2CCOCC3(CCCN(c4nncs4)C3)C2)c1` (stereo not given) reads -21.7%; that for `O=S(=O)(NCC1(O)CCOc2ccccc21)c1ccccc1Br` (stereo not given), -0.163%. Consider `COc1ccnc(N2CCc3ccc(OC(F)F)cc3C2)n1`, for which the cytotoxicity at 70.5 h was -2.84%. Regarding `CCOc1ccc(C(=O)CCC(=O)N(C)Cc2snnc2C)cc1C`, the cytotoxicity at 70.5 h is -7.49%. The result for `Cn1cc(CN2CCCC3(CCN3S(C)(=O)=O)C2)cn1` (stereo not given) reads 7.75%; that for `CC(C)CN(C(=O)Nc1cccnc1)C1CC1`, -7.03%; that for `CC1COCCN1Cc1nc(-c2cccc(C(F)(F)F)c2)no1` (stereo not given), -2.89%.

Turning to `O=C(CN1CC(c2nc(C3CC3)no2)C1)NCc1ccc(F)cc1`, the cytotoxicity at 70.5 h is -4.69%.

Regarding `CN(C)CC(=O)N1CCCC1c1cncc(Oc2ccc(F)cc2)n1` (stereo not given), the cytotoxicity at 70.5 h is 11.5%.

Regarding `CC(C)(C)CNC(=O)CNC(=O)C1CC1`, the cytotoxicity at 70.5 h was 0.566%. As for `CC(C)S(=O)(=O)NCC1CCCN(C(=O)c2ccc3c(c2)CCC3)C1` (stereo not given), the cytotoxicity at 70.5 h turned out to be 1.31%.

As to `CS(=O)(=O)N1C[C@@H]2COC[C@@H](CC(=O)N3CCCCO3)[C@@H]2C1`, the cytotoxicity at 70.5 h came out at 5.89%. `CN(C)CCN(C)C(=O)Cn1cccc2cc(-c3ccc(F)cc3)nc1-2`: the cytotoxicity at 70.5 h worked out at 4.32%. With `COc1cccc(OCC2CCCN(C(=O)CCn3ccnc3)C2)c1` (stereo not given), the cytotoxicity at 70.5 h came out at 11.7%.

`CC(=O)NCC(=O)NCC1Cn2nnc(-c3cccc(F)c3)c2CO1` (stereo not given): the cytotoxicity at 70.5 h was -0.435%.

Turning to `COc1ccccc1CC(=O)N1CCC(NCc2cc[nH]c2)CC1`, the cytotoxicity at 70.5 h is 4.03%.

As for `Cc1cnn(CCNCc2nccn2Cc2ccccc2)c1`, the cytotoxicity at 70.5 h is 1.16%. As for `COCCN1C(=O)C2(CCC(C(=O)Nc3ccccn3)CC2)N=C1C` (stereo not given), the figure is -11.2%; as for `Cc1ccc(-c2nc(CN3CCCC3Cn3cncn3)co2)cc1` (stereo not given), 1.81%. The result for `Cc1cnn(CC2CCCN2Cc2cc(C)no2)c1` (stereo not given) reads -14%. On to `COc1c(NS(=O)(=O)c2ccc(C)c(C)c2)c(C)nn1C`, for which the cytotoxicity at 70.5 h was found to be 2.79%.

Regarding `CCC(CO)N(Cc1cccnc1)Cc1ccc(-c2ccn[nH]2)s1` (stereo not given), the cytotoxicity at 70.5 h is -7.15%. As for `Cc1ccc(F)c(C(=O)N2C[C@@H](C(=O)O)[C@H](c3ccncc3)C2)c1Cl`, the figure is -8.75%; as for `Cc1nc(CN2CCCC(NCc3ccc(C(N)=O)cc3)C2)no1` (stereo not given), -4.31%; as for `CNS(=O)(=O)c1ccc(C(=O)NCCNc2ncccn2)cc1`, -12.3%. The result for `O=C(NCc1cccnc1)C1CN(c2cnc3ccccc3n2)CCN1` (stereo not given) reads 19.1%; that for `Cc1cc(C)n(CC2CCCN2Cc2ccc(F)cc2C#N)n1` (stereo not given), -4.46%.

Turning to `COc1ccc(C)cc1C(C)NCc1cnnn1C` (stereo not given), the cytotoxicity at 70.5 h was -1.22%.
